Reference: article PMC12067741, “Inhibition of SOD1 trimerization is a novel drug target for ALS disease” (Translational Neurodegeneration, 2025)
“Also recorded” adds a separate entry of the source. Where two headings read alike, the source gives them in different places.

Assays:
[1] = Pharmacokinetics in mice (compound screening, IV/PO); format: in vivo, mouse; details: mouse (compound screening), PO3, 20 mg/kg
Procedure: Fig. S1. Optimized inhibitor reduces SOD1 aggregation. a, Mutant SOD1s induced WT-SOD1 aggregation. Testing the selected chemicals to check the inhibitory effect on SOD1 aggregation .HEK293 cells were transfected with MT-SOD1 vectors (A4V, G 93 A) and treated with selected chemicals (5 mM). After incubation, transfected cells were harvested with TNNI buffer and fixed with 0.04% glutaraldehyde (Glu) for 30min. Samples were separated using SDS-PAGE. b-c, PRG-A-04 inhibited SOD1 inclusions in SK-N-SH cells. (b) Cells expressing MT-SOD1 vectors were treated with PRG-A-04 ([…]) for 24 hr. After incubation, cells were fixed with 4 % PFA and observed under the fluorescence microscope. (c) Cells with SOD1 inclusions (white arrows; strong intensity of SOD1) were counted by photomicrographs and the percentages were shown with standard deviation (SD). For cell counting, ten fluorescence images were randomly selected. Counting of cells were performed by three independent observers, who were blinded to transfection or chemical treatment group; two-tailed Student’s t-test. NS; Not significant, ****P < 0.001, d, PRG-A- […]
degradationin blood as well as gastro-intestinal tract.IV; intravenous injected group, PO; Per Os administrated group e, […]
show cytotoxicity. To know the toxic effect of PRG-A-04 , human normal fibroblast (f) and neuron cells (g) were incubated with PRG -A-04 for 48 hr dose dependently and measured the viability through MTT assay .“Con” means Dimethyl sulfoxide (DMSO) -treated control . The data are normalized to DMSO-treated cells. n=3 independent experiments; two-tailed Student’s t-test.NS; Not significant, *P < 0.05, **P < 0.01, ***P < 0.005.

[2] = Metabolic stability in liver microsomes; format: in vitro ADME; details: cynomolgus monkey liver microsomes
[3] = molecular target: CYP 2B6 (Homo sapiens, UniProt P20813)
Chain of CYP 2B6 (P20813 whole entry): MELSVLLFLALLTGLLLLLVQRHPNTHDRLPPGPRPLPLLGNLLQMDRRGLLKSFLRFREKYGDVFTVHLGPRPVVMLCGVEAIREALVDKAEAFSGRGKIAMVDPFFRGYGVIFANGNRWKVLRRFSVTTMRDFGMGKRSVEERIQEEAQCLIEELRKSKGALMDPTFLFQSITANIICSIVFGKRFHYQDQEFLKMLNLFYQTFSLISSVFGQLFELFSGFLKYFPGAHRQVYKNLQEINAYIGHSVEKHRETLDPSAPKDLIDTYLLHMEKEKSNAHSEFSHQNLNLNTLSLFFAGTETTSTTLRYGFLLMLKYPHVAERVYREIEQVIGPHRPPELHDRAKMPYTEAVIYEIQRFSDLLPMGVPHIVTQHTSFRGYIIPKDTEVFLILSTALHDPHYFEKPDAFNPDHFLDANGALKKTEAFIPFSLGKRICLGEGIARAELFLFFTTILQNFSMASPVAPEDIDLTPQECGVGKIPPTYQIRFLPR
Excerpt: (§1) Fig. S8. Preclinical data of PRG-A-04 a Plasma protein binding b CYP inhibition(direct) […]
(§2) d Mouse Brain Tissue penetration
(§3) For the convenience of calculation, […]

[4] = molecular target: CYP 2C8 (Homo sapiens, UniProt P10632)
Chain of CYP 2C8 (P10632 whole entry): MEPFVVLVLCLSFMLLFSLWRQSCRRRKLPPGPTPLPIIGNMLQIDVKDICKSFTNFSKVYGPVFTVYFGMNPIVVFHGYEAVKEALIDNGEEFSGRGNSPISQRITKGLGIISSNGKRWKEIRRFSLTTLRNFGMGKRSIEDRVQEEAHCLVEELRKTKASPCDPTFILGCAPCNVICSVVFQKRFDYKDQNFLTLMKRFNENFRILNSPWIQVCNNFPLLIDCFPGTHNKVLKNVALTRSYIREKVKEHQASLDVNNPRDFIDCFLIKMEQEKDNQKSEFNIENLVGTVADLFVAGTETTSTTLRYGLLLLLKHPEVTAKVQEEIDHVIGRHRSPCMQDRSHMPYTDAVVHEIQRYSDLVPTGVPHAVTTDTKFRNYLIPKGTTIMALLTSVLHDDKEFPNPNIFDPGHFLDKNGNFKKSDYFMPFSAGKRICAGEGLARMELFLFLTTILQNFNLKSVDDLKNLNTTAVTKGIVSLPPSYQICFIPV
Excerpt: as §1, §2, §3

[5] = molecular target: CYP 2C9 (Homo sapiens, UniProt P11712)
Chain of CYP 2C9 (P11712 whole entry): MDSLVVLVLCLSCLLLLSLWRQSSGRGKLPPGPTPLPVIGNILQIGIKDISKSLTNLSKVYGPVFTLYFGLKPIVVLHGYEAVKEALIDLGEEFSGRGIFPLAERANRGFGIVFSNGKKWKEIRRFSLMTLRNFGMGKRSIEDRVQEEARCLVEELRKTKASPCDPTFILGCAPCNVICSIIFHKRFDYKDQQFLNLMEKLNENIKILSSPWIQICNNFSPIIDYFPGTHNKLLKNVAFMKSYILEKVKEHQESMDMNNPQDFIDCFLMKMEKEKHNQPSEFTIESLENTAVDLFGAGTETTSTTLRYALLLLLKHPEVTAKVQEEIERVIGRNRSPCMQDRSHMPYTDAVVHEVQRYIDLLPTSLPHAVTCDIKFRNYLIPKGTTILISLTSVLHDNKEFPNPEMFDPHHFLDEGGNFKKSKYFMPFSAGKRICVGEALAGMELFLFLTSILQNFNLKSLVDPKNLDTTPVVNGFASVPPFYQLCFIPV
Excerpt: as §1, §2, §3

[6] = molecular target: CYP 2D6 (Homo sapiens, UniProt P10635)
Chain of CYP 2D6 (P10635 whole entry): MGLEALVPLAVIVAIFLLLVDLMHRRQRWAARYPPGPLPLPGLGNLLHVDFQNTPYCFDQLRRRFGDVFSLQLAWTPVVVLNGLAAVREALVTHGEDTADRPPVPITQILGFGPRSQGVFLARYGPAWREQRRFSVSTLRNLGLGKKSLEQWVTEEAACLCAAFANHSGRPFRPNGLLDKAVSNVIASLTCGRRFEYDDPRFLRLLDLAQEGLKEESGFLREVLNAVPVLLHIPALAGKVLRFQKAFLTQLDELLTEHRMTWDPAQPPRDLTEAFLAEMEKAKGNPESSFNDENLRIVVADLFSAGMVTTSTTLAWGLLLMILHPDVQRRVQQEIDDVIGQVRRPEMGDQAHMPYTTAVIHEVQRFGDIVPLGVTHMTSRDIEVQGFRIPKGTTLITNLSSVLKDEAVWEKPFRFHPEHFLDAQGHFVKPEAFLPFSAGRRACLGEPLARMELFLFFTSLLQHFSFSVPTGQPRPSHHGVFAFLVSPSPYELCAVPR
Excerpt: as §1, §2, §3

[7] = molecular target: CYP2C19 (Homo sapiens, UniProt P33261)
Chain of CYP2C19 (P33261 whole entry): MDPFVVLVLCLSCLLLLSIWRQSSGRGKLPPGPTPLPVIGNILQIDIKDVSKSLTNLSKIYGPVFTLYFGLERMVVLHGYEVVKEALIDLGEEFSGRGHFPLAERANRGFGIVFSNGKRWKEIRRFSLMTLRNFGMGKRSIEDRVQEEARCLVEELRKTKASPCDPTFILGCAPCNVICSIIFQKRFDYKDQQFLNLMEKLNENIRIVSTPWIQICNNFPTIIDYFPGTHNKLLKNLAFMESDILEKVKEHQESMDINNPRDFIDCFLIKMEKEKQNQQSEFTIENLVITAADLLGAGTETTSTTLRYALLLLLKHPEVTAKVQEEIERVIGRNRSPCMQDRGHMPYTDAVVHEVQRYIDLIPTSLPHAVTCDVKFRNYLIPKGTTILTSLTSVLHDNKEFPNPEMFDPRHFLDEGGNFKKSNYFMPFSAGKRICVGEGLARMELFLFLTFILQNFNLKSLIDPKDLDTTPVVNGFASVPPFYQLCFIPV
Excerpt: as §1, §2, §3

[8] = tested on: plasma proteins
Excerpt: as §1, §2, §3

[9] = tested on: misfolded MT-SOD1; experiment: Dot blot with misfolded SOD1-specific antibody; format: cell-based; details: 24 h treatment
Procedure: To detect misfolded SOD1 expression, cells transfected with SOD1 vectors were treated with PRG-A-04 for 24 h. After incubation, cells were lysed with […] NN buffer (50 mmol/L Tris–Cl, pH 7.5, 150 mmol/L NaCl, 0.3% NP-40), and then cell lysates were immobilized on nitrocellulose membrane using the Bio-Dot SF Microfiltration apparatus (Bio-Rad Laboratories, Hercules, CA). The membrane was washed with TBS and blocked by 5% BSA to remove background for 1 h. After blocking, the membrane was incubated with antibody for misfolded SOD1 (1:2000) or actin (1:10,000 in 1% skim milk containing TBST) for 30 min, then reacted with secondary antibody (goat anti-mouse IgG-horseradish peroxidase, 1:50,000 in 1% skim milk blocking buffer) for 30 min. Proteins were detected with ECL and X-ray film exposure. Actin was used as the loading control.

[10] = tested on: TDP-43 and WT-SOD1; experiment: WT-SOD1 and TDP-43 aggregation induced by ectopic TDP-43 expression in SK-N-SH cells; format: cell-based; details: TDP-43 overexpression
Excerpt: Cells with SOD1 inclusions (white arrows; strong intensity of SOD1) were counted and the percentages are shown with standard deviation. n = 3 independent experiments; two-tailed Student’s t-test. Scale bar, 10 μm. d, e PRG-A-04 reduced misfolding of MT-SOD1. d The affinity of misfolding-specific antibody to MT-SOD1 was inhibited by PRG-A-04. e Quantification of band intensity with Image J software. Mean ± SD. A.U., arbitrary units. *P < 0.05, **P < 0.01. f PRG-A-04 reduced the MT-SOD1 recombinant protein-induced increase of self-oligomerization in vitro. g WT-SOD1 and TDP-43 oligomerization induced by ectopic TDP-43 expression was abolished by PRG-A-04 treatment. h–k WT-SOD1 aggregation induced by ectopic TDP-43 expression was reduced by PRG-A-04 treatment. […] Scale bars, 10 μm. i PRG-A-04 reduced WT-SOD1 inclusions triggered by TDP-43 overexpression. Inclusion-positive cells (white arrows in h, strong intensity of SOD1) were counted and the percentages are shown as mean ± SD. j PRG-A-04 reduced the ratio of cells with cytoplasmic TDP-43 inclusions to tdtomato-positive ones. Cells with cytoplasmic TDP-43 (white arrows) among tdtomato positive ones were counted in randomly selected fields by photomicrographs and the cytosol/nucleus ratio was shown with ± SD. k PRG-A-04 reduced cytoplasmic TDP-43 inclusion. Mean ± SD. *P < 0.05, **P < 0.01, ***P < 0.005 […]

[11] = tested on: SOD1^G93A−Tg mice; experiment: Efficacy of oral (p.o., ASD) administration in SOD1G93A-Tg ALS mice
Procedure: For mice with p.o. injection, the mice were trained for 2 weeks from the age of 7 weeks, and the rotarod test was performed from 9 weeks. Age-matched WT mice were tested as positive control. […] Mouse movement was recorded. The recorded video file was further analyzed using the EthoVision XT 15 software (Noldus, Wageningen, Netherlands).

COc1cc(C=CCOC2Cc3cc4ccc(=O)oc4cc3OC2(C)C)ccc1[N+](=O)[O-] (stereo not shown) [PRG-A-04]
bioavailability [1]: 63.78%
extent of metabolism in liver microsomes [2]: moderately metabolized; also recorded: metabolized significantly
IC50 [3]: > 10 µM
IC50 [4]: > 10 µM
IC50 [5]: > 10 µM
IC50 [6]: > 10 µM
IC50 [7]: 4.75 µM
% Bound ([8]; Dog plasma, concentration 0.2 uM): > 99.93%
% Bound ([8]; Dog plasma, concentration 2 uM): 99.95%
% Bound ([8]; Dog plasma, concentration 10 uM): 99.92%
% Bound ([8]; Human plasma, concentration 0.2 uM): > 99.92%
% Bound ([8]; Human plasma, concentration 2 uM): 99.97%
% Bound ([8]; Human plasma, concentration 10 uM): 99.97%
% Bound ([8]; Monkey plasma, concentration 0.2 uM): > 99.94%
% Bound ([8]; Monkey plasma, concentration 2 uM): 99.93%
% Bound ([8]; Monkey plasma, concentration 10 uM): 99.89%
% Bound ([8]; Mouse plasma, concentration 0.2 uM): 99.91%
% Bound ([8]; Mouse plasma, concentration 2 uM): 99.92%
% Bound ([8]; Mouse plasma, concentration 10 uM): 99.87%
% Bound ([8]; Rat plasma, concentration 0.2 uM): 99.9%
% Bound ([8]; Rat plasma, concentration 2 uM): 99.91%
% Bound ([8]; Rat plasma, concentration 10 uM): 99.86%
effect on misfolding SOD1 [9]: reduction in misfolding SOD1
cytosolic mislocalization of TDP-43 [10]: significantly reduced
effect on TDP-43 and SOD1 aggregation [10]: inhibitory effect on TDP-43 and SOD1 aggregation
extension of lifespan of ALS mice ([11]; oral administration): up to 3 weeks
toxicity on oral administration ([11]; p.o. twice a week from 9 weeks): without toxicity
reduction of movement (rotarod latency) at 17 weeks ([11]; p.o. twice a week from 9 weeks, dose not stated, vehicle about 73%): 45%
